We go through 32 molecules from patent US20110105509A1 (Wyeth, LLC, priority 2009, published 2011).

A word on the IC50: it is the concentration that gives 50% inhibition. A higher IC50 goes with weaker potency in that assay.

The assay deals with T1, CRTH2 (Homo sapiens, UniProt Q9Y5Y4).
T1 construct: expressed in transfected cells; host or cells: CHO cells
T1 sequence (Q9Y5Y4 1-395): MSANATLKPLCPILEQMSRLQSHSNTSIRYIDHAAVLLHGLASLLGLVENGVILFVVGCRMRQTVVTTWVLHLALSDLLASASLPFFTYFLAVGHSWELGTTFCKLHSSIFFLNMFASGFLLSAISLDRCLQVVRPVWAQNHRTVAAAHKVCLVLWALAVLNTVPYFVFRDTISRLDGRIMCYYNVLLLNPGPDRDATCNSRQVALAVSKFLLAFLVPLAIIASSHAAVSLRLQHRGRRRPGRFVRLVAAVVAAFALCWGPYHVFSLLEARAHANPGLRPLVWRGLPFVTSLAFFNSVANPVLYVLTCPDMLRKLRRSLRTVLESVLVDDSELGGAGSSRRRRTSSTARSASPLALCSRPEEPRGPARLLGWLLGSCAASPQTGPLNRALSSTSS
Briefly: FRET based competitive immunoassay (cAMP) in CRTH2 expressing CHO cells. It counts as cell-based. To be noted: CRTH2 expressing CHO cells incubated with forskolin and PGD2; Eu3+ cryptate-labeled anti-cAMP and d2-labeled cAMP. On the procedure: FRET Assay: To evaluate potency compounds were tested in a FRET based competitive immunoassay in which CRTH2 expressing CHO cells were incubated in the presence of forskolin and PGD2 along with Eu3+ cryptate-labeled anti-cAMP and d2-labeled cAMP.
`Cc1c(Cc2ccc(=O)n(Cc3cc(F)ccc3F)c2)c2cc(F)ccc2n1CC(=O)O` [Example 26, 2-(3-((1-(2,5-Difluorobenzyl)-6-oxo-1,6-dihydropyridin-3-yl)methyl)-5-fluoro-2-methyl-1H-indol-1-yl)acetic acid]: the concentration for half-maximal inhibition (IC50) is 8 nM. That is a single-digit nanomolar value.
For `Cc1c(Cc2ccc(=O)n(C(C)C)c2)c2cc(F)ccc2n1CC(=O)O` [Example 27, 2-(5-fluoro-3-((1-isopropyl-6-oxo-1,6-dihydropyridin-3-yl)methyl)-2-methyl-1H-indol-1-yl)acetic acid] the value was 137 nM.
`Cc1c(Cc2ccc(=O)n(Cc3cccc(F)c3F)c2)c2cc(F)ccc2n1CC(=O)O` [Example 28, 2-(3-((1-(2,3-Difluorobenzyl)-6-oxo-1,6-dihydropyridin-3-yl)methyl)-5-fluoro-2-methyl-1H-indol-1-yl)acetic acid] registered an IC50 of 17 nM.
`Cc1c(Cc2ccc(=O)n(Cc3cccc(F)c3F)c2)c2ccccc2n1CC(=O)O` [Example 29] came in with an IC50 of 72 nM.
With `Cc1c(Cc2ccc(=O)n(Cc3ccc(F)c(F)c3)c2)c2ccccc2n1CC(=O)O` [Example 30, 2-(3-((1-(3,4-Difluorobenzyl)-6-oxo-1,6-dihydropyridin-3-yl)methyl)-2-methyl-1H-indol-1-yl)acetic acid] the figure was 153 nM.
Molecule `Cc1c(Cc2ccc(=O)n(Cc3ccccc3F)c2)c2ccccc2n1CC(=O)O` [Example 31, 2-(3-((1-(2-Fluorobenzyl)-6-oxo-1,6-dihydropyridin-3-yl)methyl)-2-methyl-1H-indol-1-yl)acetic acid] returned an IC50 of 41 nM.
Consider `Cc1c(Cc2ccc(=O)n(Cc3ccccc3F)c2)c2cc(F)ccc2n1CC(=O)O` [Example 32, 2-(5-Fluoro-3-((1-(2-fluorobenzyl)-6-oxo-1,6-dihydropyridin-3-yl)methyl)-2-methyl-1H-indol-1-yl)acetic acid], for which the IC50 was 8 nM.
`Cc1c(Cc2ccc(=O)n(Cc3ccc(F)c(F)c3)c2)c2cc(F)ccc2n1CC(=O)O` [Example 33, 2-(3-((1-(3,4-difluorobenzyl)-6-oxo-1,6-dihydropyridin-3-yl)methyl)-5-fluoro-2-methyl-1H-indol-1-yl)acetic acid] displayed an IC50 of 11 nM.
For `Cc1c(Cc2ccc(=O)n(Cc3cccc(F)c3)c2)c2ccccc2n1CC(=O)O` [Example 34, 2-(3-((1-(3-Fluorobenzyl)-6-oxo-1,6-dihydropyridin-3-yl)methyl)-2-methyl-1H-indol-1-yl)acetic acid] the value was 54 nM; for `Cc1c(Cc2ccc(=O)n(Cc3cc(F)cc(F)c3)c2)c2ccccc2n1CC(=O)O` [Example 35, 2-(3-((1-(3,5-Difluorobenzyl)-6-oxo-1,6-dihydropyridin-3-yl)methyl)-2-methyl-1H-indol-1-yl)acetic acid], 65 nM; for `Cc1c(Cc2ccc(=O)n(Cc3cc(F)cc(F)c3)c2)c2cc(F)ccc2n1CC(=O)O` [Example 36, 2-(3-((1-(3,5-Difluorobenzyl)-6-oxo-1,6-dihydropyridin-3-yl)methyl)-5-fluoro-2-methyl-1H-indol-1-yl)acetic acid], 2 nM.
In turn, `Cc1c(Cc2ccc(=O)n(Cc3c(F)cccc3F)c2)c2ccccc2n1CC(=O)O` [Example 37, 2-(3-((1-(2,6-Difluorobenzyl)-6-oxo-1,6-dihydropyridin-3-yl)methyl)-2-methyl-1H-indol-1-yl)acetic acid] showed an IC50 of 35 nM. This IC50 is about 18-fold higher than that of the molecule before.
With `Cc1c(Cc2ccc(=O)n(Cc3c(F)cccc3F)c2)c2cc(F)ccc2n1CC(=O)O` [Example 38, 2-(3-((1-(2,6-Difluorobenzyl)-6-oxo-1,6-dihydropyridin-3-yl)methyl)-5-fluoro-2-methyl-1H-indol-1-yl)acetic acid] the figure was 7 nM; with `Cc1c(Cc2ccc(=O)n(Cc3cccc(F)c3)c2)c2cc(F)ccc2n1CC(=O)O` [Example 39, 2-(5-Fluoro-3-((1-(3-fluorobenzyl)-6-oxo-1,6-dihydropyridin-3-yl)methyl)-2-methyl-1H-indol-1-yl)acetic acid], 4 nM; with `Cc1c(Cc2ccc(=O)n(Cc3ccc(F)cc3)c2)c2ccccc2n1CC(=O)O` [Example 40, 2-(3-((1-(4-Fluorobenzyl)-6-oxo-1,6-dihydropyridin-3-yl)methyl)-2-methyl-1H-indol-1-yl)acetic acid], 30 nM.
For `Cc1c(Cc2ccc(=O)n(Cc3ccc(F)cc3)c2)c2cc(F)ccc2n1CC(=O)O` [Example 41, 2-(5-Fluoro-3-((1-(4-fluorobenzyl)-6-oxo-1,6-dihydropyridin-3-yl)methyl)-2-methyl-1H-indol-1-yl)acetic acid] the value was 3 nM; for `Cc1c(Cc2ccc(=O)n(Cc3ccc(F)cc3F)c2)c2cc(Cl)ccc2n1CC(=O)O` [Example 42, 2-(5-Chloro-3-((1-(2,4-difluorobenzyl)-6-oxo-1,6-dihydropyridin-3-yl)-methyl)-2-methyl-1H-indol-1-yl)acetic acid], 7 nM.
As for `Cc1c(Cc2ccc(=O)n(Cc3cccc(F)c3F)c2)c2cc(Cl)ccc2n1CC(=O)O` [Example 43, 2-(5-Chloro-3-((1-(2,3-difluorobenzyl)-6-oxo-1,6-dihydropyridin-3-yl)-methyl)-2-methyl-1H-indol-1-yl)acetic acid], the IC50 came to 9 nM.
As for `Cc1c(Cc2ccc(=O)n(Cc3cccc(F)c3)c2)c2cc(Cl)ccc2n1CC(=O)O` [Example 45, 2-(5-Chloro-3-((1-(3-fluorobenzyl)-6-oxo-1,6-dihydropyridin-3-yl)methyl)-2-methyl-1H-indol-1-yl)acetic acid], the IC50 came to 5 nM.
Regarding `Cc1c(Cc2ccc(=O)n(CC(F)(F)F)c2)c2cc(F)ccc2n1CC(=O)O` [Example 46], the IC50 came out at 55 nM.
With `Cc1c(-c2nn(Cc3ccccc3)c(=O)c3ccccc23)c2ccccc2n1CC(N)=O` [Example 47, 2-(3-(3-Benzyl-4-oxo-3,4-dihydrophthalazin-1-yl)-2-methyl-1H-indol-1-yl)-acetamide] the figure was over 2000 nM; with `Cc1c(-c2nn(Cc3ccccc3)c(=O)c3ccccc23)c2ccccc2n1CC(=O)N(C)C` [Example 48, 2-(3-(3-Benzyl-4-oxo-3,4-dihydrophthalazin-1-yl)-2-methyl-1H-indol-1-yl)-N,N-dimethylacetamide], over 2000 nM; with `Cc1c(-c2nn(Cc3ccccc3)c(=O)c3ccccc23)c2ccccc2n1CC(=O)N1CCCC1` [Example 49, 2-Benzyl-4-(2-methyl-1-(2-oxo-2-(pyrrolidin-1-yl)ethyl)-1H-indol-3-yl)phthalazin-1(2H)-one], over 2000 nM.
The molecule `Cc1c(-c2nn(Cc3ccccc3)c(=O)c3ccccc23)c2ccccc2n1CC(=O)NS(C)(=O)=O` [Example 50, 2-(3-(3-Benzyl-4-oxo-3,4-dihydrophthalazin-1-yl)-2-methyl-1H-indol-1-yl)-N-(methylsulfonyl)acetamide] showed an IC50 of over 1500 nM.
With `Cc1c(-c2nn(Cc3ccccc3)c(=O)c3ccccc23)c2ccccc2n1Cc1nn[nH]n1` [Example 51, 4-(1-((2H-Tetrazol-5-yl)methyl)-2-methyl-1H-indol-3-yl)-2-benzyl-phthalazin-1(2H)-one] the figure was over 2000 nM; with `Cc1c(-c2nn(Cc3ccccc3)c(=O)c3ccccc23)c2ccccc2n1CCO` [Example 52, 2-Benzyl-4-(1-(2-hydroxyethyl)-2-methyl-1H-indol-3-yl)phthalazin-1(2H)-one], over 2000 nM; with `Cc1c(Cc2ccc(=O)n(CC(F)(F)F)c2)c2cc(Cl)ccc2n1CC(=O)O` [Example 53, 2-(5-Chloro-2-methyl-3-((6-oxo-1-(2,2,2-trifluoroethyl)-1,6-dihydropyridin-3-yl)methyl)-1H-indol-1-yl)acetic acid], 55 nM.
With `Cc1c(Cc2ccc(=O)n(CCCC(F)(F)F)c2)c2cc(F)ccc2n1CC(=O)O` [Example 54, 2-(5-Fluoro-2-methyl-3-((6-oxo-1-(4,4,4-trifluorobutyl)-1,6-dihydropyridin-3-yl)methyl)-1H-indol-1-yl)acetic acid] the figure was 329 nM; with `CC(=O)Nc1cccc2c1c(Cc1ccc(=O)n(Cc3ccc(F)cc3F)n1)c(C)n2CC(=O)O` [Example 55, 2-(4-Acetamido-3-((1-(2,4-difluorobenzyl)-6-oxo-1,6-dihydropyridazin-3-yl)-methyl)-2-methyl-1H-indol-1-yl)acetic acid], over 2000 nM; with `Cc1c(CC2=NN(Cc3ccc(F)cc3F)C(=O)CC2)c2cc(F)ccc2n1CC(=O)O` [Example 56, 2-(3-((1-(2,4-Difluorobenzyl)-6-oxo-1,4,5,6-tetrahydropyridazin-3-yl)methyl)-5-fluoro-2-methyl-1H-indol-1-yl)acetic acid], 5 nM.
For `Cc1c(CC2=NN(CC(F)(F)F)C(=O)CC2)c2cc(F)ccc2n1CC(=O)O` [Example 57, 2-(5-Fluoro-2-methyl-3-((6-oxo-1-(2,2,2-trifluoroethyl)-1,4,5,6-tetrahydropyridazin-3-yl)-methyl)-1H-indol-1-yl)acetic acid] the value was 5 nM.
`Cc1c(CC2=NN(CCCC(F)(F)F)C(=O)CC2)c2cc(F)ccc2n1CC(=O)O` [Example 58, 2-(5-Fluoro-2-methyl-3-((6-oxo-1-(4,4,4-trifluorobutyl)-1,4,5,6-tetrahydro-pyridazin-3-yl)methyl)-1H-indol-1-yl)acetic acid] came in with a concentration for half-maximal inhibition (IC50) of 18 nM.
